Laboratory results from ChEMBL document CHEMBL3769391, “Identification of a new cyathane diterpene that induces mitochondrial and autophagy-dependent apoptosis and shows a potent in vivo anti-colorectal cancer activity” (Eur J Med Chem, 2016).
pIC50: −log10 of the molar value. Calls of active or inactive are those of the source. The rule behind the calls is not given here.

Columns and labels:
HCT-116 [1] = assay: Induction of apoptosis in human HCT116 cells assessed as cytochrome C release from mitochondria to cytoplasm at 5 uM after 12 hrs by immunofluorescence assay; type: functional
HCT-116 [2] = assay: Induction of apoptosis in human HCT116 cells assessed as late apoptotic cells at 5 uM after 24 hrs by Annexin V-FITC/propidium iodide staining based flow cytometry (reference value: 3.73 to 4.54%); type: functional
HCT-116 [3] = assay: Induction of apoptosis in human HCT116 cells assessed as early apoptotic cells at 10 uM after 24 hrs by Annexin V-FITC/propidium iodide staining based flow cytometry (reference value: 1.06%); type: functional
HCT-116 [4] = assay: Induction of apoptosis in human HCT116 cells assessed as late apoptotic cells at 10 uM after 24 hrs by Annexin V-FITC/propidium iodide staining based flow cytometry (reference value: 4.54%); type: functional
HCT-116 [5] = assay: Induction of apoptosis in human HCT116 cells assessed as early apoptotic cells at 10 uM after 12 hrs by Annexin V-FITC/propidium iodide staining based flow cytometry (reference value: 1.13%); type: functional
HCT-116 [6] = assay: Induction of apoptosis in human HCT116 cells assessed as caspase activation at 5 uM after 24 hrs by CaspACEFITC-VAD-FMK staining based flow cytometry (reference value: 7.72%); type: functional
HCT-116 [7] = assay: Induction of apoptosis in human HCT116 cells assessed as caspase activation at 5 uM after 36 hrs by CaspACEFITC-VAD-FMK staining based flow cytometry (reference value: 7.72%); type: functional
HCT-116 [8] = assay: Induction of apoptosis in human HCT116 cells assessed as increase in total cellular ROS level after 6 hrs by H2DCFDA staining based flow cytometry; type: functional, cell-based
HCT-116 [9] = assay: Induction of apoptosis in human HCT116 cells assessed as increase in mitochondrial superoxide radical after 16 hrs by MitoSOX Red staining based flow cytometry; type: functional, cell-based
HCT-116 [10] = assay: Induction of apoptosis in human HCT116 cells assessed as viable cells at 5 uM after 24 hrs by Annexin V-FITC/propidium iodide staining based flow cytometry in presence of NAC (reference value: 93.64%); type: functional; details: HCT-116, 24 h, read-out: Activity
HCT-116 [11] = assay: Induction of apoptosis in human HCT116 cells assessed as early apoptotic cells at 5 uM after 24 hrs by Annexin V-FITC/propidium iodide staining based flow cytometry in presence of NAC (reference value: 2.2%); type: functional
HCT-116 [12] = assay: Induction of apoptosis in human HCT116 cells assessed as late apoptotic cells at 5 uM after 24 hrs by Annexin V-FITC/propidium iodide staining based flow cytometry in presence of NAC (reference value: 3.73%); type: functional
HCT-116 [13] = assay: Induction of apoptosis in human HCT116 cells assessed as necrotic cells at 5 uM after 24 hrs by Annexin V-FITC/propidium iodide staining based flow cytometry (reference value: 0.44%); type: functional
HCT-116 [14] = assay: Induction of apoptosis in human HCT116 cells assessed as increase in BimEL expression at 5 uM after 6 to 24 hrs by Western blot analysis; type: functional, cell-based
HCT-116 [15] = assay: Induction of apoptosis in human HCT116 cells assessed as increase in BimL expression at 5 uM after 6 to 24 hrs by Western blot analysis; type: functional, cell-based
HCT-116 [16] = assay: Induction of apoptosis in human HCT116 cells assessed as increase in BimS expression at 5 uM after 6 to 24 hrs by Western blot analysis; type: functional, cell-based
HCT-116 [17] = assay: Induction of apoptosis in human HCT116 cells assessed as changes in Bax expression at 5 uM after 6 to 24 hrs by Western blot analysis; type: functional, cell-based
HCT-116 [18] = assay: Induction of apoptosis in human HCT116 cells assessed as changes in p53 expression at 5 uM after 6 to 24 hrs by Western blot analysis; type: functional, cell-based
HCT-116 [19] = assay: Induction of Bcl-2 expression in human HCT116 cells at 5 uM after 4 to 12 hrs by qRT-PCR method; type: functional, cell-based
[20] = Cytotoxicity against Bax deficient human HCT116 cells assessed as reduction in cell viability after 24 hrs by MTT assay; type: functional, cell-based; details: HCT-116, 24 h
HCT-116 [21] = assay: Induction of apoptosis in Bax deficient human HCT116 cells assessed as early apoptotic cells at 10 uM after 24 hrs by Annexin V-FITC/propidium iodide staining based flow cytometry (reference value: 1.13%); type: functional
HCT-116 [22] = assay: Induction of apoptosis in Bax deficient human HCT116 cells assessed as early apoptotic cells at 15 uM after 24 hrs by Annexin V-FITC/propidium iodide staining based flow cytometry in presence of NAC (reference value: 0.85%); type: functional
HCT-116 [23] = assay: Induction of autophagy in human HCT116 cells assessed as increase in LC3-2 level at 5 uM by Western blot analysis; type: functional, cell-based
HCT-116 [24] = assay: Induction of apoptosis in human HCT116 cells assessed as changes in Beclin-1 expression at 5 uM after 4 to 12 hrs by Western blot analysis; type: functional, cell-based
HCT-116 [25] = assay: Induction of apoptosis in human HCT116 cells assessed as increase in ATG5 expression at 5 uM after 4 to 12 hrs by Western blot analysis; type: functional, cell-based
HCT-116 [26] = assay: Induction of apoptosis in human HCT116 cells assessed as ATG5 cleavage at 5 uM after 4 to 12 hrs by Western blot analysis; type: functional, cell-based
HCT-116 [27] = assay: Induction of apoptosis in ATG5 scramble human HCT116 cells assessed as early apoptotic cells at 5 uM after 24 hrs by Annexin V-FITC/propidium iodide staining based flow cytometry (reference value: 1.99%); type: functional
HCT-116 [28] = assay: Induction of apoptosis in ATG5 scramble human HCT116 cells assessed as late apoptotic cells at 5 uM after 24 hrs by Annexin V-FITC/propidium iodide staining based flow cytometry (reference value: 3.35%); type: functional
[29] = Antitumor activity against Bax deficient human HCT116 cells xenografted in immune deficient nude BALB/c mouse assessed as tumor growth inhibition at 5 mg/kg, ip administered every other day for 2 weeks measured after 2 weeks post last dose relative to control; type: functional; details: HCT-116, ip, 336 h, read-out: TGI
[30] = Antitumor activity against Bax deficient human HCT116 cells xenografted in immune deficient nude BALB/c mouse assessed as tumor growth inhibition at 10 mg/kg, ip administered every other day for 2 weeks measured after 2 weeks post last dose relative to control; type: functional; details: HCT-116, ip, 336 h, read-out: TGI
Mus musculus [31] = assay: Toxicity in immune deficient nude BALB/c mouse xenografted with human HCT116 cells assessed as discomfort behavioral changes at 5 and 10 mg/kg, ip administered every other day for 2 weeks measured during compound dosing; type: organism-based, HCT-116; details: in vivo, 336 h
Mus musculus [32] = assay: Hepatotoxicity in immune deficient nude BALB/c mouse xenografted with Bax deficient human HCT116 cells assessed as changes in total protein level at 5 and 10 mg/kg, ip administered every other day for 2 weeks measured during compound dosing; type: toxicity, organism-based, HCT-116; details: in vivo, 336 h
Mus musculus [33] = assay: Hepatotoxicity in immune deficient nude BALB/c mouse xenografted with Bax deficient human HCT116 cells assessed as changes in albumin level in serum at 5 and 10 mg/kg, ip administered every other day for 2 weeks measured during compound dosing; type: toxicity, organism-based, HCT-116; details: in vivo, 336 h
Mus musculus [34] = assay: Hepatotoxicity in immune deficient nude BALB/c mouse xenografted with human HCT116 cells assessed as changes in alanine transaminase level in serum at 5 and 10 mg/kg, ip administered every other day for 2 weeks measured during compound dosing; type: toxicity, organism-based, HCT-116; details: in vivo, 336 h

In the case of `CO[C@@H]1C(C=O)=CC[C@@H]2C3=C(C(C)C)CC[C@]3(C)CC[C@@]2(C)[C@H]1O`, the Activity (HCT-116 [1]) was “Active”, the Activity (HCT-116 [2]) was 13.06% and the Activity (HCT-116 [3]) was 59.5%. For the same compound, the Activity (HCT-116 [4]) was 22.57%, the Activity (HCT-116 [5]) was 30.19% and the Activity (HCT-116 [6]) was 70.08%. For the same compound, the Activity (HCT-116 [7]) was 93.96%, the Activity (HCT-116 [8]) was “Dose-dependent effect” and the Activity (HCT-116 [9]) was “Dose-dependent effect”. The viability at 5 µM (HCT-116 [10]) was 91.4%, the Activity (HCT-116 [11]) was 1.35% and the Activity (HCT-116 [12]) was 6.46%. The Activity (HCT-116 [13]) was 5.93%, the Activity (HCT-116 [14]) was “Active” and the Activity (HCT-116 [15]) was “Active”. For the same compound, the Activity (HCT-116 [16]) was “Active”, the Activity (HCT-116 [17]) was “inactive” and the Activity (HCT-116 [18]) was “inactive”. For the same compound, the Activity (HCT-116 [19]) was “Active”, the pIC50 [20] was 4.62 and the Activity (HCT-116 [21]) was 44.04%. For the same compound, the Activity (HCT-116 [22]) was 1.42%, the Activity (HCT-116 [23]) was “Active” and the Activity (HCT-116 [24]) was “inactive”. For the same compound, the Activity (HCT-116 [25]) was “Active”, the Activity (HCT-116 [26]) was “Active” and the Activity (HCT-116 [27]) was 15.2%. It also gave an Activity (HCT-116 [28]) of 5.53%, an inhibition in vivo at 5 mg/kg [29] of 25.8% and an inhibition in vivo at 10 mg/kg [30] of 60.1%. The Activity (Mus musculus [31]) was “Non-toxic”, the Activity (Mus musculus [32]) was “Non-toxic” and the Activity (Mus musculus [33]) was “Non-toxic”. For the same compound, the Activity (Mus musculus [34]) was “Non-toxic”.
